The source of these data is paper PMC11116102, “A naturally occurring variant of SHLP2 is a protective factor in Parkinson’s disease” (Molecular Psychiatry, 2024).

In data set [1] the test system is dopamine levels in the striatum. In words: Striatal dopamine in MPTP-lesioned mice (HPLC with electrochemical detection). As to conditions: C57BL/6 mice, MPTP 20 mg/kg, n = 8 per group. The format is in vivo. On the procedure:
C57BL/6 male mice, 8 to 10 weeks of age were purchased from Jackson Labs (Bar Harbor, Maine). 1-methyl-4- phenyl- 1,2,3,6-tetrahydropyridine (MPTP) (Selleck Chemicals Co., Houston, TX) was prepared to a concentration of […] free-base in 0.9% saline on the day of use. C57BL/6 mice were injected with 20 mg/kg free-base MPTP. 8 days after the last injection of MPTP, mice were killed by cervical dislocation and the brain quickly removed and placed on wet ice. Striatal tissues for HPLC analysis and western immunoblotting were collected fresh corresponding to anatomical regions from bregma 1.20 to bregma 0.60, with borders dorsal to the anterior commissure, ventral to the corpus callosum, medial to the lateral ventricle, and 2.5 mm lateral from midline, and frozen at -80 °C until analysis. All procedures utilizing MPTP lesioning and tissue collection were approved by the USC IACUC.
Dopamine concentrations were determined according to an adaptation of Irwin et al. from the method of Kilpatrick et al.. […] The protein pellet was resuspended in 0.5 N NaOH and the total protein concentration determined using the BCA Protein Assay (Pierce, Rockford, IL), a Biotek Model Elx800 microplate reader (Biotek Instruments, Wincoski, VT) and KCjunior software. […]

Data set [2] has as its system HeLa expressing HA- EGFP- OMP25 (HA-MITO). Put plainly: Rapid mitochondria immunoprecipitation, localization of synthetic SHLP2. The format is cell-based. As to conditions: synthetic SHLP2 treatment, western blot. As for the experimental part:
Mitochondria isolation from HeLa cells expressing HA-EGFP-OMP25 (HA-MITO) or myc-EGFP-OMP25 (CON-MITO) was performed according to the published article. Briefly, cells were lysed in KPBS buffer (136 mM KCl, 10 mM KH2PO4, pH 7.25) and homogenized with 25 strokes of a 2 ml homogenizer. The homogenate was spun down at 1000 g for 2 min. The supernatant was incubated with anti-HA magnetic beads on an end-over-end rotator for 3.5 min. The beads were washed with KPBS buffer, incubated for 10 min with lysis buffer (1% triton X-100 lysis buffer with protease inhibitor cocktail), and spun down at 17000 g for 10 min. The supernatants were used for western blot.
For orientation: In western blotting, separated proteins are transferred to a membrane and probed.

The next data set concerns HEK293 cells. In words: Cycloheximide pulse-chase protein stability. The format is cell-based. As to conditions: HEK293 transiently transfected with C-terminal EGFP-tagged construct; 100ug/ml cycloheximide for the indicated time; western blot, Image J; n = 3/per group. On the procedure: Cells were lysed with RIPA Lysis and Extraction Buffer (ThermoFisher Scientific) plus the Halt protease & phosphatase inhibitor cocktail (ThermoFisher Scientific). The lysates were incubated on ice for 10 min then homogenized using a sonicator, and the supernatant was collected by centrifugation at 15,000 x g for 15 min at 4 °C. Protein content in the cellular lysates was quantified using the Pierce™ BCA Protein Assay Kit (ThermoFisher Scientific). Predetermined amounts of proteins (10-30μg) were separated on 8-16% SDS-PAGE gels and blotted onto PVDF membranes (Biorad, Hercules, CA, USA). Membranes were incubated with primary antibody at 4 °C overnight according to the manufacturer’s instructions. After several washes with Tris-buffered saline containing 0.1% Tween-20, membranes were incubated at room temperature for 1 hr with the appropriate HRP-conjugated secondary antibody. Clarity™ Western ECL substrate (Biorad) was used for detecting specific bands. Membranes were imaged on a Bio-Rad ChemiDoc XRS^+ imager. If necessary, relative intensities of the bands in each condition were measured using Image J, a free software program provided by National Institute of Health (Bethesda, Maryland, USA).
Cycloheximide, an inhibitor of protein biosynthesis, was used to examine protein stability in cells. […] The protein quantity from western blot was examined with Image J.

No end group written: not given here.

With `CN1CC=C(c2ccccc2)CC1` [MPTP, 1-methyl-4-phenyl-1,2,3,6-tetrahydropyridine], the “dopamine levels in the striatum, toxin alone” value in data set [1] was “significant decrease in dopamine levels”. In the case of MGVKFFTLSTRFFPSVQRAVPLWTNS [WT SHLP2], the “mitochondrial localization of synthetic peptide” value in data set [2] is recorded as “localized in the mitochondria after 30 min of treatment”. With MGVRFFTLSTRFFPSVQRAVPLWTNS [K4R SHLP2], the “protein stability, pulse-chase” value in the data set with HEK293 cells is “more stable than WT SHLP2”.
